In patent US8846849B2, “Tissue sealants from plasma derived proteins” (Ethicon, Inc., priority 2011, dated 2014):

Tests used:
[1] = Hydrolysis of NHS active esters in D2O monitored by NMR; assay type: physicochemical; conditions: in D2O at 25° C.; for Estimated Time for 95% Hydrolysis / Estimated Time for 10% Hydrolysis: NMR; for k = Constant in % Hydrolysis, y = k Exp(−mx) / m = Relative Rate in % Hydrolysis, y = k Exp(−mx): x = Time
Protocol: The relative reactivity of the active esters was determined by monitoring the rate of hydrolytic degradation in D2O at room temperature by NMR as shown in FIG. 4.
Various NHS active esters shown in FIG. 4 are the 4-Arm-TKHEED-Diglycolate-NHS (T-Dig-NHS or T-DG-N), the 4-Arm-Quadrol-Diglycolate-NHS (Q-Dig-NHS or Q-DG-N), the 4-Arm-PEG-Diglycolate-NHS (PEG-Dig-NHS or PEG-DG-N), the 4-Arm-TKHEED-Glutarate-NHS (T-Glut-NHS or T-Glut-N), and the 2-Arm-PEG-Diacid-NHS (PEG-NHS). It was observed that diglycolate-containing esters are the fastest hydrolyzing active esters, meaning to hydrolyze more than 95% in about 30 to 60 minutes irrespective of the core structure. […] These compounds appear to hydrolyze only about 10% or less in about 80 to 100 minutes.
Hydrolysis degradation parameters are summarized in Table 1 qualitatively from the chart in FIG. 4. It is observed that the Relative Rate, m, (in the exponential equation) for all the Diglycolate-NHS esters are within about 20% of each other. However, the rates are much faster than the others; for example, T-Dig-NHS (or T-DG-N) is 144 times faster than T-Glut-NHS, and 98 times faster than PEG-NHS. The degradation profiles of cross-linker A (T-DG-NHS), B (Q-Dig-NHS) and C (PEG-Dig-NHS) correspond to the instant invention, while the crosslinking agent D (T-Glut-NHS) and E (PEG-NHS) correspond to control groups.

[2] = Hydrolytic degradation of sealant in de-ionized water at 37° C. by pH profiling; assay type: physicochemical; conditions: deionized water 37° C., constant pH 7.4
Protocol: Sealant with ester links undergoing hydrolytic degradation in PBS at 37° C. was evaluated by the % weight loss method. Sealant degradation in de-ionized (DI) water causes the pH level of the solution to […], which can be titrated by addition of a basic compound to maintain a constant pH of 7.4 at 37° C. until such time that no more basic compound was needed to maintain a neutral solution; the total time for titration was noted.
As the Diglycolate-NHS/BAC-2 system is a hydrogel of fibrinogen with ester based cross-links, its degradation was followed in the pH profiler of de-ionized water at 37° C., where a base was added to neutralize the acid formed upon ester hydrolysis with time, to maintain a constant neutral pH. Cross-linker weight % was varied based on fibrinogen content.

[3] = Water solubility of diglycolate-NHS esters; assay type: physicochemical
[4] = molecular target: T1, fibrinogen (BAC-2) solution (Homo sapiens, UniProt P02671+P02675+P02679); assay: Qualitative rate of gelation of BAC-2 (fibrinogen) solution with active ester cross-linker; conditions: weight ratio cross-linker to fibrinogen 1:1, fibrinogen approx. 70 mg/ml, room temperature
T1 construct: Powdered BAC-2, a blood plasma derived product was obtained from Omrix BioPharmaceuticals; purchased Omrix BioPharmaceuticals; host or cells: blood plasma
T1 sequence (P02671 20-629 limits assumed): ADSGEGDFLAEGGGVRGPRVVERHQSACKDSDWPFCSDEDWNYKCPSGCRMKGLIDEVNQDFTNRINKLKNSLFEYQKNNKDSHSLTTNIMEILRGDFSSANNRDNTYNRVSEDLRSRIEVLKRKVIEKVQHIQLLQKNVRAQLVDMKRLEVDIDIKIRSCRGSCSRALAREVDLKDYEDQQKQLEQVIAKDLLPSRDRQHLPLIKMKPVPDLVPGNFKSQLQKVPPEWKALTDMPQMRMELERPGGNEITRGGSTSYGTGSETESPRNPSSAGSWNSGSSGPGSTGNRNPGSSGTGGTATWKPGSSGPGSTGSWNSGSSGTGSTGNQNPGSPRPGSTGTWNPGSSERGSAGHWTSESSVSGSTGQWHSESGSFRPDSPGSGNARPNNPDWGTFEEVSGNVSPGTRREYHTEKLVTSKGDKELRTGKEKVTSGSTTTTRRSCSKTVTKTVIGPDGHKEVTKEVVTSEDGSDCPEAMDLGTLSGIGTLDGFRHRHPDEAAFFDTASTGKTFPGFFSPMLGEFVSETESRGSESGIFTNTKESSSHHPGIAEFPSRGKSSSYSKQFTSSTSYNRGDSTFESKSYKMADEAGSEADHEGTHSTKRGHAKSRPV
T1 sequence (P02675 31-491): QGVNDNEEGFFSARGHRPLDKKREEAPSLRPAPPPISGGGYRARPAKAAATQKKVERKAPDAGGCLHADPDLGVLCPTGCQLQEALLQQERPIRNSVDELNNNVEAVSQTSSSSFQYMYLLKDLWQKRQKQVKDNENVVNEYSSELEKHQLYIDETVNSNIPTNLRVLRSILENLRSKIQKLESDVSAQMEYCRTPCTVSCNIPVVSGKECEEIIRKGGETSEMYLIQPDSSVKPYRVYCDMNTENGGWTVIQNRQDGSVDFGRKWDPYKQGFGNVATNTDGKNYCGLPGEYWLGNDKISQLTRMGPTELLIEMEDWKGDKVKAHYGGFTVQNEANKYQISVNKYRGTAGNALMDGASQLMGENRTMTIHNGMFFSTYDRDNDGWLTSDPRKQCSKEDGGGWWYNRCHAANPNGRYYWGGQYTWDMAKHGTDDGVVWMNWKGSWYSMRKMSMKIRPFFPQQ
T1 sequence (P02679 27-433 limits assumed): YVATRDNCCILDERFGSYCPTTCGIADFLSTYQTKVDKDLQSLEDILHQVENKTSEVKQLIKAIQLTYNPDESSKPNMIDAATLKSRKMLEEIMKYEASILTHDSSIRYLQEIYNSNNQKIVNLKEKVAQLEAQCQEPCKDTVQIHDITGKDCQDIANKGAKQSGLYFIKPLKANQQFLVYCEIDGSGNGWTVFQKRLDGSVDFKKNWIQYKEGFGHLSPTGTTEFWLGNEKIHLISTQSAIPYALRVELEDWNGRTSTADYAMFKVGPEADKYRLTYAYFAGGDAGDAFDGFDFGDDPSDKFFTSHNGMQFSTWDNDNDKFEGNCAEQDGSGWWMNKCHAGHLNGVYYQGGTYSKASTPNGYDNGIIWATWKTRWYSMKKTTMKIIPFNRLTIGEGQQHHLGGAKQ
Protocol: Sealants based on the inventive compositions were prepared by using an aqueous solution of BAC-2 (about 7% fibrinogen, or 70 mg/ml) where the crosslinking agent in the form of a powder was added at a selected composition and mixed well for 1 to 2 minutes up to gellation.
Crosslinking agents A, B, C correspond to the instant invention, while D and E correspond to control groups. The solid NHS ester, preferably in a powder form, was added to the BAC-2 solution at room temperature in a test tube at a weight ratio of 1 to 1 for active ester to fibrinogen, and mixed well. The time for gelation, defined qualitatively as the point when the BAC-2 solution in the test tube no longer flowed, was noted and recorded as shown in Table 2.
Sealants were prepared using an aqueous solution of fibrinogen (about 7% solution), where powder of either T-DG-N or PEG-DG-N was added at a selected composition based on the fibrinogen content. […] The in vitro rate of degradation of the hydrogel (or sealant) was determined in an enzymatic medium of plasmin at a concentration of 3.3 microgram/ml by determining the % clot remaining by gravimetric method after a given duration of exposure.

O=C(COCC(=O)ON1C(=O)CCC1=O)OCCN(CCOC(=O)COCC(=O)ON1C(=O)CCC1=O)CCN(CCOC(=O)COCC(=O)ON1C(=O)CCC1=O)CCOC(=O)COCC(=O)ON1C(=O)CCC1=O [T-DG-N, 4-Arm TKHEED-tetra Diglycolate-tetra-NHS ester]
hydrolysis rate, times faster than PEG-NHS [1]: 98 times | hydrolysis rate, times faster than T-Glut-NHS [1]: 144 times | Estimated Time for 95% Hydrolysis [1]: 30 min | k = Constant in % Hydrolysis, y = k Exp(−mx) [1]: 62 | m = Relative Rate in % Hydrolysis, y = k Exp(−mx) [1]: 0.104 | Longevity of sealant, Avg. ([2]; NHS cross-linker 30 wt % based on fibrinogen): 2.7 days | Longevity of sealant, Avg. ([2]; NHS cross-linker 50 wt % based on fibrinogen): 7.1 days | Longevity of sealant, Avg. ([2]; NHS cross-linker 60 wt % based on fibrinogen): 16.7 days | water solubility [3]: more than 85% | Qualitative observation of Gelation [4]: 1 to 2 min

4-Arm-Quadrol-Diglycolate-NHS [Q-DG-N]
Estimated Time for 95% Hydrolysis [1]: 60 min | k = Constant in % Hydrolysis, y = k Exp(−mx) [1]: 107 | m = Relative Rate in % Hydrolysis, y = k Exp(−mx) [1]: 0.084 | water solubility [3]: about 25% | Qualitative observation of Gelation [4]: 1 to 2 min

O=C(CCOCCOCCOCCOCCOCCOCCOCCOCCOCCC(=O)ON1C(=O)CCC1=O)ON1C(=O)CCC1=O [PEG-NHS, Bis-dPEG(9)-NHS ester, reference compound]
Estimated Time for 10% Hydrolysis [1]: 80 min | k = Constant in % Hydrolysis, y = k Exp(−mx) [1]: 98 | m = Relative Rate in % Hydrolysis, y = k Exp(−mx) [1]: 0.00106 | Qualitative observation of Gelation [4]: 15 to 30 min

4-Arm-TKHEED-Glutarate-NHS [T-Glut-NHS, reference compound]
Estimated Time for 10% Hydrolysis [1]: 100 min | k = Constant in % Hydrolysis, y = k Exp(−mx) [1]: 65 | m = Relative Rate in % Hydrolysis, y = k Exp(−mx) [1]: 0.00072 | Qualitative observation of Gelation [4]: 30 to 60 min
